Assay results from paper PMC3291479 (2011).
Where two headings read alike, the source gives them in different places.

Legend:
Assay type in all cases: biochemical
[1] = biological target: T1, NRH:quinone oxidoreductase 2 (NQO2) (Homo sapiens, UniProt P16083); test: rhNQO2 resazurin reduction, 96-well fluorescence assay
T1 sequence (P16083 1-231): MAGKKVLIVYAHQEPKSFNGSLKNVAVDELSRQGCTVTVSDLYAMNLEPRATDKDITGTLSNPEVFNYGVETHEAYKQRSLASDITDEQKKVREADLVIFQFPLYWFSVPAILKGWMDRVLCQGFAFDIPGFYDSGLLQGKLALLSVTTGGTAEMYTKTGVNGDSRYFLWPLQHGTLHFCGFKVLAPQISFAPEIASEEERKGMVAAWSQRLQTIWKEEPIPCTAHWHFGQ

[2] = biological target: T1, NRH:quinone oxidoreductase 2 (NQO2); test: NRH-dependent inactivation of rhNQO2; conditions: read-out: rhNQO2 inhibition at 1μM ^a
[3] = biological target: T1, NRH:quinone oxidoreductase 2 (NQO2); test: NRH-dependent inactivation of rhNQO2; conditions: read-out: rhNQO2 inhibition at 1μM ^a; remark: listed apart in the source
[4] = biological target: T1, NRH:quinone oxidoreductase 2 (NQO2); test: NRH-dependent inactivation of rhNQO2; conditions: read-out: rhNQO2 inhibition at 1μM ^a; remark: listed apart in the source

| Structure (SMILES) | rhNQO2 resazurin reduction, 96-well fluorescence assay [1] | also measured |
| --- | --- | --- |
| CCN(CC)CCCC(C)Nc1ccnc2cc(Cl)ccc12 (stereo not shown) [chloroquine] | quercetin, imatinib, resveratrol, chloroquine, and melatonin for their ability to inhibit rhNQO2 activity in a cell-free system |  |
| Cc1c(COc2ccc([N+](=O)[O-])cc2)c2c(n1C)C(=O)C=C(NCCCCN)C2=O [compound 1, 5-(4-aminobutyl)amino-1,2-dimethyl-3-[(4-nitrophenoxy)methyl]indole-4,7-dione] |  | inhibition at 1 µM [2]: 96% |
| Cc1c(COc2c(F)cc(F)cc2F)c2c(n1C)C(=O)C=C(NCCCCN)C2=O [compound 2, 5-(4-aminobutyl)amino-1,2-dimethyl-3-[(2,4,6-trifluorophenoxy)methyl]indole-4,7-dione] |  | inhibition at 1 µM [3]: 96% |
| Cc1c(COc2c(F)cc(F)cc2F)c2c(n1C)C(=O)C(NCCCCN)=CC2=O [compound 3, 6-(4-aminobutyl)amino-1,2-dimethyl-3-[(2,4,6-trifluorophenoxy)methyl]indole-4,7-dione] |  | inhibition at 1 µM [4]: 33% |
| Cc1ccc(NC(=O)c2ccc(CN3CCN(C)CC3)cc2)cc1Nc1nccc(-c2cccnc2)n1 [imatinib] | quercetin, imatinib, resveratrol, chloroquine, and melatonin for their ability to inhibit rhNQO2 activity in a cell-free system |  |
| O=c1c(O)c(-c2ccc(O)c(O)c2)oc2cc(O)cc(O)c12 [quercetin] | quercetin, imatinib, resveratrol, chloroquine, and melatonin for their ability to inhibit rhNQO2 activity in a cell-free system |  |
| Oc1ccc(/C=C/c2cc(O)cc(O)c2)cc1 [resveratrol] | quercetin, imatinib, resveratrol, chloroquine, and melatonin for their ability to inhibit rhNQO2 activity in a cell-free system |  |
